{
  "source": "patent EP4653006A1",
  "about": "“NOVEL MIXTURE OF ACTIVE INGREDIENTS, COMPOSITIONS CONTAINING THEM, AND THEIR USE AGAINST ALLERGY AND/OR INFLAMMATION” (Global Pharmacies Partner S.R.L. in Forma Abbreviata G.P.P. …, priority 2024, dated 2025)",
  "key": {"TNFα": {"test_system": "TNFα", "assay": "TNFα release by ELISA in sensitized/stimulated RBL-2H3 cells", "format": "cell-based, rat", "conditions": "positive control 20 µM", "method": "The anti-inflammatory action was instead evaluated, always in the same cell line, by measuring the ability of the sample to inhibit the release of tumor necrosis factor alpha (TNFα).\n(§1) The RBL-2H3 cells were first sensitized and then stimulated to induce degranulation.\nThe test was conducted on RBL-2H3 cells grown in DMEM (Dulbecco's modified Eagle medium) containing 10% fetal bovine serum (FBS) and 1% antibiotics (penicillin and streptomycin) and incubated in standard culture conditions (37°C, 5% CO2). RBL-2H3 cells are widely used in allergy and immunology research, as, like mast cells, they express FCεRI and, following cross-linking between IgE bound to FCεRI and allergens, they undergo degranulation. In this way, therefore, they simulate the behavior of mast cells and basophils in their response to an immunological stimulus.\nThe supernatant recovered from the cells was also used for the dosage of TNFα performed by ELISA (Enzyme-Linked Immunosorbent Assay), a very widespread biochemical technique used for the quantification of proteins and peptides. In an ELISA assay, a specific […] for TNFα is immobilized on a solid surface (the bottom of a well) to which the assay medium is added. Detection is done by means of a biotinylated secondary antibody and then reacted with streptavidin-HRP. The colorimetric reaction is proportional to the amount of TNFα present. The results are read by spectrophotometer at 450 nm. The values obtained were then interpolated into a standard curve of TNFα.\nThe absorbance (optical density, OD) measured at 450 nm is directly proportional to the amount of TNFα produced by the tissues. To calculate the concentrations of TNFα, the OD values obtained were interpolated into a standard curve of TNFα. The percentages were calculated with respect to the non-sensitized and non-stimulated cells (NS). The values are expressed as means ± standard deviation. Statistical processing of the data was performed by Student's t-test. Values of p<0.05 are considered significant. […]"}, "RBL-2H3 cells": {"test_system": "RBL-2H3 cells", "assay": "degranulation (β-hexosaminidase release) in sensitized/stimulated RBL-2H3 cells", "format": "cell-based, rat", "conditions": "positive control 20 µM", "method": "The antiallergic activity of the tested sample of mixture M was evaluated by measuring its ability to prevent degranulation processes in a rat leukemia cell line (RBL-2H3), widely used as a model simulating mast cells in immunological and allergological studies.\nas §1\nThe test was conducted on RBL-2H3 cells grown in DMEM (Dulbecco's modified Eagle medium) containing 10% fetal bovine serum (FBS) and 1% antibiotics (penicillin and streptomycin) and incubated in standard culture conditions (37°C, 5% CO2). […]\nThe medium was then recovered and separated from the cells and incubated with 4-nitrophenyl-N-acetyl-β-D-glucosamide. The reaction was stopped with carbonate buffer and the absorbance was measured by spectrophotometric reading at 405 nm. Degranulation was calculated as the percentage of β-hexosaminidase relative to non-sensitized (NS) cells as follows: Degranulation (%) = (ODX)/(ODNS)⋅100 [formula]\nThe measured absorbance (optical density, OD) is directly proportional to the amount of β-hexosaminidase present in the analyzed fluids, which in turn correlates positively with the levels of histamine released during the degranulation phase and is therefore an indicative marker of the degranulation process. […] The values are expressed as means ± standard deviation. […]"}},
  "data": [
    {"smiles": "C=C1CC[C@H]2C(=C)CC[C@H]3C(=C)C(=O)O[C@@H]3[C@@H]12", "note": "[PC, Dehydrocostolactone]", "values": [
      {"measurement": "protection (% vs NC), reduction in TNFα release", "setting": "TNFα", "result": 19.5, "unit": "%"},
      {"measurement": "TNFα (% vs NS)", "setting": "TNFα; NC = 227.8", "result": 183.4, "unit": "%"},
      {"measurement": "TNFα", "setting": "TNFα; NC = 248.8", "result": 200.3, "unit": "pg/mL"},
      {"measurement": "protection (% vs NC), reduction in degranulation", "setting": "RBL-2H3 cells", "result": 80.8, "unit": "%"},
      {"measurement": "β-hexosaminidase (% vs NS)", "setting": "RBL-2H3 cells; anti-DNP IgE / DNP-HSA, NC = 1,274.6", "result": 244.8, "unit": "%"}
    ]}
  ]
}
